The values that follow come from patent US9469615B2, “Quinoxalines and AZA-quinoxalines as CRTH2 receptor modulators” (Merck Sharp & Dohme Corp., priority 2010, dated 2016).

Broadly, the pKi is the Ki on a negative log10 scale, so that one unit is a factor of ten.

pKi: −log10 of the molar value.

The target in the experiment is T1, hCRTH2 (Homo sapiens, UniProt Q9Y5Y4).
T1 construct: expressed in transfected cells; host or cells: HEK (human embryonic kidney) cells expressing hCRTH2; membrane preparation
T1 sequence (Q9Y5Y4 1-395): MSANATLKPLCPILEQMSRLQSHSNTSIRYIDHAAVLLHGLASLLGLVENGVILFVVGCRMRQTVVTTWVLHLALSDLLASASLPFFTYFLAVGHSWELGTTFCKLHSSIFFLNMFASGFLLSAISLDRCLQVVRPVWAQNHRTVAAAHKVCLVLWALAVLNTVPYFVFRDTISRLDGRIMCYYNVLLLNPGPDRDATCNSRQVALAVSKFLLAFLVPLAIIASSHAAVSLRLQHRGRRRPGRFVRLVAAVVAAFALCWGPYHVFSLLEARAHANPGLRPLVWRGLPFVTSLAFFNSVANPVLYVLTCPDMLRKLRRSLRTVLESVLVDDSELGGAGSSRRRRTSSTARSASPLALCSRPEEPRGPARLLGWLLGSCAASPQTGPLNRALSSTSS
Put plainly: Radioligand binding assay ([3H]PGD2 competition, HEK-hCRTH2 membranes). Particulars: [3H]PGD2 competition, Table B. The method, boiled down: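 Competition binding with 3.0 nM [3H]PGD2 and 8-20 μg HEK-hCRTH2 membrane protein in 50 mM Tris-HCl pH 7.4, 1 mM EDTA, 2 mM MnCl2, 1% Me2SO, 60 min at room temperature. Nonspecific binding defined with 10 μM PGD2; bound radioactivity counted after filtration.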

As for `CC1Cc2ccccc2CCN1C(=O)c1ccc2nc(-c3ccc(Cl)cc3)c(CCCCC(=O)O)nc2c1` (centres unmarked) [compound 663, 5-(3-(4-chlorophenyl)-7-(2-methyl-2,3,4,5-tetrahydro-1H-benzo[d]azepine-3-carbonyl)quinoxalin-2-yl)pentanoic acid], the pKi is 7.70 to 8.68. Take `Cc1ccc(CN2CCN(C(=O)c3ccc4nc(-c5ccc(Cl)cc5)c(CCCCC(=O)O)nc4c3)CC2)cc1` [compound 664, 5-(3-(4-chlorophenyl)-7-(4-(4-methylbenzyl)piperazine-1-carbonyl)quinoxalin-2-yl)pentanoic acid]: the pKi is 7.70 to 8.68. The figure for `Cc1ccc(N2CCN(C(=O)c3ccc4nc(-c5ccc(Cl)cc5)c(CCCCC(=O)O)nc4c3)CC2)cc1` [compound 665, 5-(3-(4-chlorophenyl)-7-(4-(p-tolyl)piperazine-1-carbonyl)quinoxalin-2-yl)pentanoic acid] is 7.70 to 8.68; for `CN1CCN(C(=O)c2ccc3nc(-c4ccc(Cl)cc4)c(CCCCC(=O)O)nc3c2)C(c2ccccc2)C1` (centres unmarked) [compound 666, 5-(3-(4-chlorophenyl)-7-(4-methyl-2-phenylpiperazine-1-carbonyl)quinoxalin-2-yl)pentanoic acid] it is 7.70 to 8.68. `O=C(O)CCCCc1nc2cc(C(=O)N3CCN(Cc4cccc(F)c4)CC3)ccc2nc1-c1ccc(Cl)cc1` [compound 667, 5-(3-(4-chlorophenyl)-7-(4-(3-fluorobenzyl)piperazine-1-carbonyl)quinoxalin-2-yl)pentanoic acid] had a negative-log Ki (pKi) of 7.70 to 8.68.

For the compound `O=C(O)CCCCc1nc2cc(C(=O)N3CCn4cc(C(F)(F)F)nc4C3)ccc2nc1-c1ccc(Cl)cc1` [compound 668, 5-(3-(4-chlorophertyl)-7-(2-(trifluoromethyl)-5,6,7,8-tetrahydroimidazo[1,2-a]pyrazine-7-carbonyl)quinoxalin-2-yl)pentanoic acid], the pKi is 6.70 to 7.70. As for `O=C(O)CCCCc1nc2cc(C(=O)N3CCN(c4ccc(Cl)cn4)CC3)ccc2nc1-c1ccc(Cl)cc1` [compound 669, 5-(3-(4-chlorophenyl)-7-(4-(5-chloropyridin-2-yl)piperazine-1-carbonyl)quinoxalin-2-yl)pentanoic acid], the figure is 7.70 to 8.68; as for `Cc1nc(CN2CCN(C(=O)c3ccc4nc(-c5ccc(Cl)cc5)c(CCCCC(=O)O)nc4c3)CC2)cs1` [compound 670, 5-(3-(4-chlorophenyl)-7-(4-((2-methylthiazol-4-yl)methyl)piperazine-1-carbonyl)quinoxalin-2-yl)pentanoic acid], 7.70 to 8.68. Compound `Cn1cc(N2CCN(C(=O)c3ccc4nc(-c5ccc(Cl)cc5)c(CCCCC(=O)O)nc4c3)CC2)cn1` [compound 671, 5-(3-(4-chlorophenyl)-7-(4-(1-methyl-1H-pyrazol-4-yl)piperazine-1-carbonyl)quinoxalin-2-yl)pentanoic acid] showed a pKi of 6.70 to 7.70. As for `C[C@@H]1CN(C(=O)c2ccc3nc(-c4ccc(Cl)cc4)c(CCCCC(=O)O)nc3c2)[C@@H](C)CN1c1ccccc1` [compound 672, 5-(3-(4-chlorophenyl)-7-((2S,5R)-2,5-dimethyl-4-phenylpiperazine-1-carbonyl)quinoxalin-2-yl)pentanoic acid], the figure is 6.70 to 7.70. As for `CCc1nnc2n1CCN(C(=O)c1ccc3nc(-c4ccc(Cl)cc4)c(CCCCC(=O)O)nc3c1)C2` [compound 673, 5-(3-(4-chlorophenyl)-7-(3-ethyl-5,6,7,8-tetrahydro-[1,2,4]triazolo[4,3-a]pyrazine-7-carbonyl)quinoxalin-2-yl)pentanoic acid], the figure is 6.70 to 7.70.

For `CN1CCN(C(=O)c2ccc3nc(-c4ccc(Cl)cc4)c(CCCCC(=O)O)nc3c2)CC1c1ccccc1` (centres unmarked) [compound 674, 5-(3-(4-chlorophenyl)-7-(4-methyl-3-phenylpiperazine-1-carbonyl)quinoxalin-2-yl)pentanoic acid], the pKi was 7.70 to 8.68. As for `Cc1nonc1N1CCN(C(=O)c2ccc3nc(-c4ccc(Cl)cc4)c(CCCCC(=O)O)nc3c2)CC1` [compound 675, 5-(3-(4-chlorophenyl)-7-(4-(4-methyl-1,2,5-oxadiazol-3-yl)piperazine-1-carbonyl)quinoxalin-2-yl)pentanoic acid], the figure is 7.70 to 8.68. As for `O=C(O)CCCCc1nc2cc(C(=O)N3CCN(c4ncccc4Cl)CC3)ccc2nc1-c1ccc(Cl)cc1` [compound 676, 5-(3-(4-chlorophenyl)-7-(4-(3-chloropyridin-2-yl)piperazine-1-carbonyl)quinoxalin-2-yl)pentanoic acid], the figure is 7.70 to 8.68; as for `O=C(O)CCCCc1nc2cc(C(=O)N3C[C@@H]4C[C@H]3CN4c3cccc(F)c3)ccc2nc1-c1ccc(Cl)cc1` [compound 677, 5-(3-(4-chlorophenyl)-7-((1S,4S)-5-(3-fluorophenyl)-2,5-diazabicyclo[2.2.1]heptane-2-carbonyl)quinoxalin-2-yl)pentanoic acid], 7.70 to 8.68; as for `O=C(O)CCCCc1nc2cc(C(=O)N3CCN(C4CCCCC4)C(=O)C3)ccc2nc1-c1ccc(Cl)cc1` [compound 678, 5-(3-(4-chlorophenyl)-7-(4-cyclohexyl-3-oxo-piperazine-1-carbonyl)quinoxalin-2-yl)pentanoic acid], 7.70 to 8.68.

For `O=C(O)CCCCc1nc2cc(C(=O)N3CCN(c4cccnc4)CC3)ccc2nc1-c1ccc(Cl)cc1` [compound 679, 5-(3-(4-chlorophenyl)-7-(4-(pyridin-3-y)piperazine-1-carbonyl)quinoxalin-2-yl)pentanoic acid], the pKi was 7.70 to 8.68. As for `O=C(O)CCCCc1nc2cc(C(=O)N3C[C@@H]4C[C@H]3CN4c3ccc(F)cc3)ccc2nc1-c1ccc(Cl)cc1` [compound 680, 5-(3-(4-chlorophenyl)-7-((1S,4S)-5-(4-fluorophenyl)-2,5-diazabicyclo[2.2.1]heptane-2-carbonyl)quinoxalin-2-yl)pentanoic acid], the figure is 7.70 to 8.68; as for `Cc1cnc(C)c(N2CCN(C(=O)c3ccc4nc(-c5ccc(Cl)cc5)c(CCCCC(=O)O)nc4c3)CC2)n1` [compound 681, 5-(3-(4-chlorophenyl)-7-(4-(3,6-dimethylpyrazin-2-yl)piperazine-1-carbonyl)quinoxalin-2-yl)pentanoic acid], 7.70 to 8.68; as for `O=C(O)CCCCc1nc2cc(C(=O)N3CCN(Cc4ccncc4)CC3)ccc2nc1-c1ccc(Cl)cc1` [compound 682, 5-(3-(4-chlorophenyl)-7-(4-(pyridin-4-ylmethyl)piperazine-1-carbonyl)quinoxalin-2-yl)pentanoic acid], 6.70 to 7.70. The figure for `Cc1cnccc1N1CCN(C(=O)c2ccc3nc(-c4ccc(Cl)cc4)c(CCCCC(=O)O)nc3c2)CC1` [compound 683, 5-(3-(4-chlorophenyl)-7-(4-(3-methylpyridin-4-yl)piperazine-1-carbonyl)quinoxalin-2-yl)pentanoic acid] is 7.70 to 8.68; for `Cc1cc(N2CCN(C(=O)c3ccc4nc(-c5ccc(Cl)cc5)c(CCCCC(=O)O)nc4c3)CC2)sn1` [compound 684, 5-(3-(4-chlorophenyl)-7-(4-(3-methylisothiazol-5-yl)piperazine-1-carbonyl)quinoxalin-2-yl)pentanoic acid] it is 7.70 to 8.68. As for `O=C(O)CCCCc1nc2cc(C(=O)N3CCN(c4nnc(C5CC5)o4)CC3)ccc2nc1-c1ccc(Cl)cc1` [compound 685, 5-(3-(4-chlorophenyl)-7-(4-(5-cyclopropyl-1,3,4-oxadiazo1-2-yl)piperazine-1-carbonyl)quinoxalin-2-yl)pentanoic acid], the figure is 6.70 to 7.70; as for `O=C(O)CCCCc1nc2cc(C(=O)N3C[C@@H]4C[C@H]3CN4Cc3ccccc3)ccc2nc1-c1ccc(Cl)cc1` [compound 686, 5-(7-((1S,4S)-5-benzyl-2,5-diazabicyclo[2.2.1]heptane-2-carbonyl)-3-(4-chlorophenyl)quinoxalin-2-yl)pentanoic acid], 6.70 to 7.70; as for `O=C(O)CCCCc1nc2cc(C(=O)N[C@H](CO)c3ccc(F)cc3)ccc2nc1-c1ccc(Cl)cc1` [compound 687, (S)-5-(3-(4-chlorophenyl)-7-((1-(4-fluorophenyl)-2-hydroxyethyl)carbamoyl)quinoxalin-2-yl) pentanoic acid], 7.70 to 8.68. The compound `O=C(O)CCCCc1nc2cc(C(=O)N[C@H](CO)c3ccc(F)cc3)ccc2nc1-c1ccccc1` [compound 688, (S)-5-(7-((1-(4-fluorophenyl)-2-hydroxyethyl)carbamoyl)-3-phenylquinoxalin-2-yl)pentanoic acid] gave a pKi of 6.70 to 7.70. As for `O=C(O)CCCCc1nc2cc(C(=O)N3CCC(O)(c4ccccc4)C3)ccc2nc1-c1ccc(Cl)cc1` (centres unmarked) [compound 689, 5-(3-(4-chlorophenyl)-7-(3-hydroxy-3-phenylpyrrolidine-1-carbonyl)quinoxalin-2-yl)pentanoic acid], the figure is 7.70 to 8.68.

Compound `O=C(O)CCCCc1nc2cc(C(=O)N3CC4CC4(c4ccccc4)C3)ccc2nc1-c1ccc(Cl)cc1` (centres unmarked) [compound 690, 5-(3-(4-chlorophenyl)-7-(1-phenyl-3-azabicyclo[3.1.0]hexane-3-carbonyl)quinoxalin-2-yl)pentanoic acid] showed a pKi of 7.70 to 8.68. As for `O=C(O)CCCCc1nc2cc(C(=O)NC3CC(=O)Nc4ccccc43)ccc2nc1-c1ccc(Cl)cc1` (centres unmarked) [compound 691, 5-(3-(4-chlorophenyl)-7-((2-oxo-1,2,3,4-tetrahydroquinolin-4-yl)carbamoyl)quinoxalin-2-yl)pentanoic acid], the figure is 7.70 to 8.68.
